Data on eleven compounds can be found in patent publication US20110152263A1, “COMPOSITION AND METHOD FOR INHIBITING NOROVIRUS INFECTION” (priority 2006, published 2011).

Broadly, the EC50 is the midpoint of the concentration-response curve. As usually defined, the CC50 is the concentration giving 50% cytotoxicity. Read a high CC50 as better tolerance by the cells.

The target in data set [1] is VA387 binding to the H antigen. As to the kind of experiment: Saliva-based blocking EIA: VA387 VLP binding to H antigen. To be noted: for EC50: VA387 VLP binding to H antigen saliva, read-out: EC50 rVA387 H; for inhibition of VA387 binding to the H antigen: one saliva sample. More on the design: species or system Norovirus. From the text: (§1) A saliva based blocking assay offers several advantages for anti-Norovirus agent screening. First, the assay is a solid phase blocking assay which is simple and suitable for large scale screening. Second, the source of HBGAs used in the assay was from healthy human volunteers, which is likely to represent the natural forms of Norovirus receptors. Third, the assay is highly sensitive and specific. Finally, a panel of saliva samples can be assembled from different individuals representing different blood types, from which the results obtained in primary screenings can be validated.
(§2) To optimize the blocking assays, we have titrated all reagents used in the assays including the VLPs, the first and second antibodies, the blocking reagent (dried cow milk), and a panel of saliva samples from different donors. […] For comparison of daily results, eight control wells containing everything but compounds were included in each plate, and the assays were considered valid when the daily OD450 variations in these wells were less than 20%. Less than 1% of the total screening runs failed in our study.
(§3) Cow milk contains a large amount of variable proteins, lipids and glycans which can easily interfere with the assay particularly when a low concentration of compounds (μM) was used in our screening. To avoid any false-negative results, the step of addition of blotto in the EIA for all screening experiments in this study was removed.
(§4) Baculovirus-expressed recombinant capsid proteins of four Norovirus strains representing four distinct receptor binding patterns were studied: Norovirus strains Norwalk, VA387, VA207, and MOH. The procedures of production of Norovirus VLPs in insect cell Spodoptera frugiperda (Sf9) have described in “Expression, self-assembly, and antigenicity of the Norwalk virus capsid protein”, J Virol 66:6527-32, Jiang et al (1992), and in “Baculovirus expression and antigenic characterization of the capsid proteins of three Norwalk-like viruses”, Arch Virol 147:119-30, Jiang et al. (2002), the disclosures of which are incorporated herein by reference. Briefly, a cDNA from the 3′ end of the genome containing the viral capsid gene (open reading frame 2 [ORF-2] was cloned from the viral RNA extracted from stool specimens. The recombinant baculoviruses carry the viral capsid genes were constructed from the cloned cDNAs using the Bac to Bac expression system according to the manufacture's instructions (Invitrogen Life Technologies, Carlsbad, Calif.). VLPs were partially purified by sucrose gradient centrifugation and stored at −80° C. Protein concentrations were determined by measuring the optical density at 280 nm (OD280) using a GeneQuant spectrophotometer (Pharmacia, Mich.) and by comparison with a bovine serum albumin standard in a sodium dodecyl sulfate-polyacrylamide gel (25). The purity of VLPs used in this study was over 90% which was determined by SDS-PAGE analysis.
(§5) Saliva samples were collected from healthy adult volunteers under an approval of human subject research protocol by the Institutional Review Board at the Cincinnati Children's Hospital Medical Center. Except for gender and race, no other personal information was collected. A total of 5-10 ml of saliva was collected from each volunteer, and the samples were processed immediately after collection. To avoid potential Norovirus-specific antibodies that may interfere in the receptor binding assays, saliva samples were boiled at 100° C. for 10 min, and then centrifuged at 10,000×g for 5 min. The clear supernatant was stored at −80° C. until use. The HBGA types of the saliva samples were determined by enzyme immune assays with monoclonal antibodies specific to human HBGAs (8). Saliva sample from a type A donor was selected for the primary screening, and a total of 25 saliva samples of known ABO, secretor, and Lewis types were selected for further studies to confirm the primary screening results. […]

Data set [2] has as its target VA207 binding to the Lewis antigens. Description: Saliva-based blocking EIA: VA207 VLP binding to Lewis antigens. More on the design: species or system Norovirus. To be noted: VA207 VLP binding to Lewis antigen; read-out: EC50 rVA207 Le.
Excerpt: as §1, §2, §3, §4, §5

Data set [3] addresses VA387 binding to the B antigen. Description: Saliva-based blocking EIA: VA387 VLP binding to B antigen. More on the design: species or system Norovirus. The conditions noted are these: for EC50: VA387 VLP binding to B antigen saliva, read-out: EC50 rVA387 B; for inhibition of VA387 binding to the B antigen: one saliva sample.
Excerpt: as §1, §2, §3, §4, §5

The target in data set [4] is MOH binding to the B antigen. As to the kind of experiment: Saliva-based blocking EIA: MOH VLP binding to B antigen. Also on record: species or system Norovirus. To be noted: MOH VLP binding to type B saliva; read-out: EC50 rMOH B.
Excerpt: as §1, §2, §3, §4, §5

Data set [5] deals with Norwalk virus binding to the H antigen. As to the kind of experiment: Saliva-based blocking EIA: Norwalk virus VLP binding to H antigen. Also on record: species or system Norovirus. The conditions noted are these: for EC50: Norwalk VLP binding to H antigen, read-out: EC50 rNorwalk H.
Excerpt: as §1, §2, §3, §4, §5

The target of data set [6] is MOH binding to the A antigen. As to the kind of experiment: Saliva-based blocking EIA: MOH VLP binding to A antigen. Also on record: species or system Norovirus. To be noted: MOH VLP binding to type A saliva; read-out: EC50 rMOH A.
Excerpt: as §1, §2, §3, §4, §5

Data set [7] relates to Norwalk virus binding to the A antigen. Description: Saliva-based blocking EIA: Norwalk virus VLP binding to A antigen. More on the design: species or system Norovirus. The conditions noted are these: for EC50: Norwalk VLP binding to A antigen, read-out: EC50 rNorwalk A.
Excerpt: as §1, §2, §3, §4, §5

Data set [8] concerns Human cervical carcinoma cells (HeLa). As to the kind of experiment: MTS cytotoxicity assay, HeLa cells. Type of data set: cell-based. The conditions noted are these: 3 days, average of three experiments.
For data set [9], the target named is VA387 VLPs binding to the A antigen. As to the kind of experiment: Saliva-based blocking EIA: VA387 VLP binding to type A saliva. More on the design: species or system Norovirus. The conditions noted are these: read-out: EC50 rVA387 A.
Excerpt: as §1, §2, §3, §4, §5

In the case of `FC(F)(F)c1ccc(N/N=C/c2cc(Br)cs2)cc1` [Compound 15], the EC50 in data set [1], in data set [2], in data set [3], in data set [4], in [5] and in data set [6] was above 100 µM each time. Moreover, the EC50 in [7] came to 22.5 µM; in [9] it was 14.1 µM. Besides, in data set [1], the “inhibition of VA387 binding to the H antigen” value was “did not have any inhibitory activity”. Further, in [3], the “inhibition of VA387 binding to the B antigen” value (“inhibition … to the B antigen” below) is listed as “did not have any inhibitory activity”. The “inhibition of Norwalk virus binding to the H antigen” value (shortened to “inhibition of Norwalk virus binding”) in [5] is recorded as “inhibited”. For the same compound, the “blocking of Norwalk virus binding to the A antigen” value (“blocking of Norwalk virus binding” for short) in data set [7] is given as “blocked”. In [8], this compound registered a CC50 of 7.6 µM.
Regarding `O=C(/C=C/c1ccc(-c2cc(Cl)cc(Cl)c2)o1)c1cccs1` [Compound 8], the EC50 in data set [1], in [2], in data set [3], in data set [4], in data set [5] and in [6] was above 100 µM throughout. In addition, the EC50 in [7] is above 100 µM; in data set [9], 10.9 µM. In addition, the “inhibition of VA387 binding to the H antigen” value in [1] is “did not have any inhibitory activity”. For the same compound, the “inhibition … to the B antigen” value in data set [3] is reported as “did not have any inhibitory activity”.
Consider `O=C(C(=O)c1ccc(C(=O)c2ccc(C(=O)C(=O)c3ccc(Sc4ccccc4)cc3)cc2)cc1)c1ccc(Sc2ccccc2)cc1` [Compound 11], for which the EC50 in data set [1] was 26.1 µM; in data set [2] it was above 100 µM; in data set [3] it was 35.3 µM; in [4] it was above 100 µM; in data set [5], above 100 µM; in data set [6], above 100 µM. For the same compound, the EC50 in [7] was above 100 µM; in data set [9], 12.8 µM. Moreover, the “inhibition of VA387 binding to the H antigen” value in data set [1] is reported as “dose-dependant inhibition”. The “inhibition … to the B antigen” value in data set [3] was “dose-dependant inhibition”.
As to `Cc1ccc(NC(=O)CC(c2ccccc2)c2ccccc2)cc1C` [Compound 9], the EC50 in data set [1] was 47.5 µM; in [2] it was above 100 µM; in [3] it was above 100 µM; in [4], above 100 µM; in [5], above 100 µM; in [6], above 100 µM. The EC50 in [7] is above 100 µM; in data set [9], 11.7 µM. The “inhibition of VA387 binding to the H antigen” value in data set [1] is “revealed inhibitory activity”. Further, in data set [3], the “inhibition … to the B antigen” value is given as “did not have any inhibitory activity”. The compound further had a CC50 in data set [8] of 40.3 µM.
Take `CCC[n+]1cc(-c2ccccc2)nc(N2CCOCC2)n1.[I-]` [Compound 1]: the EC50 in [1] is 6.8 µM; in data set [2] it was above 100 µM; in [3], 5.8 µM; in data set [4] it was above 100 µM; in data set [5] it was 18.9 µM; in data set [6], above 100 µM. Further, the EC50 in data set [7] was 15.6 µM; in data set [9], 2.2 µM. Further, the “inhibition of VA387 binding to the H antigen” value in data set [1] is on record as “dose-dependant inhibition”. Also, the “inhibition … to the B antigen” value in [3] is reported as “dose-dependant inhibition”. Moreover, in data set [5], the “inhibition of Norwalk virus binding” value is on record as “inhibited”. The “blocking of Norwalk virus binding” value in [7] is on record as “blocked”.
For the compound `O=CC(=O)c1ccc2c(c1)Cc1cc(C(=O)C=O)ccc1-2` [Compound 6], the EC50 was 41.1 µM in data set [1]; above 100 µM in data set [2]; 44.6 µM in [3]; above 100 µM in data set [4]; above 100 µM in [5]; above 100 µM in [6]. Besides, the EC50 in data set [7] was above 100 µM; in data set [9], 9.3 µM. Also, in [1], the “inhibition of VA387 binding to the H antigen” value is recorded as “dose-dependant inhibition”. Also, the “inhibition … to the B antigen” value in data set [3] is listed as “dose-dependant inhibition”. Moreover, the CC50 in [8] amounted to 52.7 µM.
Turning to `Oc1ccc(C=Nc2nccs2)c(O)c1` [Compound 7], the EC50 in data set [1] was 7.6 µM; in data set [2] it was above 100 µM; in data set [3], 26 µM; in [4], above 100 µM; in data set [5] it was above 100 µM; in data set [6] it was above 100 µM. Moreover, the EC50 in data set [7] was above 100 µM; in [9], 9.6 µM. For the same compound, the “inhibition of VA387 binding to the H antigen” value in data set [1] was “dose-dependant inhibition”. Besides, the “inhibition … to the B antigen” value in data set [3] is on record as “dose-dependant inhibition”.
As for `C=C(SCCNC(=O)NCCCCCCNC(=O)NCCSc1ccccc1O)C(C)=CC` [Compound 4], the EC50 in [1] was 14.2 µM; in [2], above 100 µM; in data set [3], 13.1 µM; in data set [4] it was above 100 µM; in data set [5] it was 22.6 µM; in data set [6], above 100 µM. Moreover, the EC50 in [7] worked out at 14.1 µM; in data set [9], 8.1 µM. The “inhibition of VA387 binding to the H antigen” value in [1] is on record as “dose-dependant inhibition”. Further, the “inhibition … to the B antigen” value in [3] is reported as “dose-dependant inhibition”. Besides, the “inhibition of Norwalk virus binding” value in [5] is reported as “inhibited”. The “blocking of Norwalk virus binding” value in data set [7] is “blocked”.
For `CC(C)OC(=O)CC(=O)CSc1nc(-c2ccc(F)cc2)cc(-c2cccs2)c1C#N` [Compound 10], the EC50 is 7.5 µM in data set [1]; above 100 µM in data set [2]; 7.9 µM in [3]; above 100 µM in [4]; 19.8 µM in data set [5]; above 100 µM in data set [6]. For the same compound, the results for the EC50 in data set [7] and in [9] were 35 µM and 11.8 µM, respectively. Further, in data set [1], the “inhibition of VA387 binding to the H antigen” value was “dose-dependant inhibition”. The “inhibition … to the B antigen” value in [3] is “dose-dependant inhibition”. Moreover, in data set [5], the “inhibition of Norwalk virus binding” value is reported as “inhibited”. In addition, the “blocking of Norwalk virus binding” value in [7] was “blocked”.
In the case of `CCCCc1ccc(NC(=O)c2ccc(C)cc2)cc1` [Compound 12], the EC50 in [1] was 28.2 µM; in data set [2] it was above 100 µM; in data set [3] it was 32.5 µM; in data set [4], above 100 µM; in data set [5], 47.8 µM; in data set [6], above 100 µM. For the same compound, the figures for the EC50 in [7] and in data set [9] were 53 µM and 12.8 µM, respectively. In [1], the “inhibition of VA387 binding to the H antigen” value is “dose-dependant inhibition”. Further, in data set [3], the “inhibition … to the B antigen” value was “dose-dependant inhibition”. Moreover, the “blocking of Norwalk virus binding” value in data set [7] was “blocked”.
For `CCCOc1ccc(-c2cc(C(=O)N/N=C/c3ccc(OCC)cc3)[nH]n2)cc1` [Compound 14], the EC50 in [1], in data set [2], in data set [3], in [4], in [5] and in data set [6] was above 100 µM in each case. Also, the EC50 in data set [7] is above 100 µM; in data set [9] it was 13.7 µM. Further, the “inhibition of VA387 binding to the H antigen” value in data set [1] was “did not have any inhibitory activity”. Further, the “inhibition … to the B antigen” value in data set [3] is “did not have any inhibitory activity”. The CC50 in data set [8] was found to be 12.3 µM.
